We go through nine molecules from patent publication US20090306142A1, “METHODS TO CONTROL QoI-RESISTANT FUNGAL PATHOGENS” (DOW AGROSCIENCES LLC, priority 2008, published 2009).

Converted amounts (≈) assume the structure as drawn. Read-outs that look alike come from different tables or passages of the source.

For assay [1], the system named is QoI-sensitive SEPTTR isolates ('WT'). Description: in vitro fungitoxicity, panel of SEPTTR isolates, QoI-sensitive. To be noted: for mean EC50, QoI-Sensitive (n = 17): mean of 17 QoI-sensitive isolates.
Text: (§1) A panel of 31 SEPTTR isolates was used in in vitro fungitoxicity experiments. Most of the used isolates were isolated from wheat in the UK from 2001 to 2005.
Assay [2] concerns QoI-resistant SEPTTR isolates ('G143A'). Description: in vitro fungitoxicity, panel of SEPTTR isolates, QoI-resistant. To be noted: for fold less active against QoI-resistant than QoI-sensitive isolates: resistant vs sensitive; for mean EC50, QoI-resistant (n = 14): mean of 14 QoI-resistant isolates.
Text: as §1
For assay [3], the system named is SEPTTR field isolate R2004-6 (G143A mutation in cytochrome b).
The test system of assay [4] is SEPTTR field isolate LARS 15. Description: in vitro fungitoxicity, microtiter plate assay, strobilurin-sensitive isolate. To be noted: for LARS 15 EC50: isolate LARS 15, sensitive to strobilurins; for activity against the LARS 15 strain (in words): isolate LARS 15.
Assay [5] concerns SEPTTR field isolate R2004-6 (G143A mutation in cytochrome b). The assay is described as follows: in vitro fungitoxicity, microtiter plate assay, strobilurin-resistant isolate. To be noted: for R2004-6 EC50: isolate R2004-6, G143A, resistant to strobilurins; for activity against the QoI-resistant strain R2004-6 (in words): isolate R2004-6.
The subject of assay [6] is QoI-resistant SEPTTR isolates. Description: in-planta control of SEPTTR on wheat cultivar Riband, QoI-resistant isolates. It is filed as in vivo, Septoria tritici. To be noted: visual inspection 21 days after inoculation.

One may read the EC50 as the concentration giving half of the maximal effect. Turning to `Fc1ccc([C@]2(Cn3cncn3)O[C@H]2c2ccccc2Cl)cc1` (racemic) [Epoxiconazole, epoxiconazole], the EC50 in assay [1] (Zymoseptoria tritici, read-out: mean EC50, QoI-Sensitive (n = 17)) was determined as 0.351 µg/mL (≈ 1.06 µM); in assay [2] (Zymoseptoria tritici, read-out: mean EC50, QoI-resistant (n = 14)) it was 0.589 µg/mL (≈ 1.79 µM). The “fold less active against QoI-resistant than QoI-sensitive isolates” value in assay [2] (ratio of mean EC50 values) worked out at 1.7 fold.

Regarding `C[C@@]1(c2ccc(Oc3ccccc3)cc2)OC(=O)N(Nc2ccccc2)C1=O` (racemic) [Famoxadone, famoxadone], in assay [3], the “R2004-6 EC50” value is given as greater than 5 ppm. Besides, the “LARS 15 EC50” value in assay [4] came out at 0.136 ppm.

On to `CO/C=C(/C(=O)OC)c1ccccc1Oc1cc(Oc2ccccc2C#N)ncn1` [Azoxystrobin, azoxystrobin], for which the “mean EC50, QoI-Sensitive (n = 17)” value in assay [1] was 0.057 µg/mL. Besides, in assay [2], the “mean EC50, QoI-resistant (n = 14)” value was 9.077 µg/mL. In assay [2] (ratio of mean EC50 values), the “fold less active against QoI-resistant than QoI-sensitive isolates” value is 160 fold. For the same molecule, the “LARS 15 EC50” value in assay [4] is reported as 0.011 ppm. In addition, in assay [5], the “R2004-6 EC50” value came to 3.00 ppm.

`COc1ccnc(C(=O)N[C@H]2COC(=O)[C@H](Cc3ccccc3)[C@@H](OC(=O)C(C)C)[C@H](C)OC2=O)c1OCOC(=O)C(C)C` [Compound 1]: in assay [6] (isolate G3-03, QoI R), the “breaking rate for control of SEPTTR infection” value turned out to be 0.9 ppm. Besides, the “breaking rate for control of SEPTTR infection” value in assay [6] (isolate TwistB-02, QoI R) was determined as 0.3 ppm. For the same molecule, the “mean EC50, QoI-Sensitive (n = 17)” value in assay [1] came out at 0.035 µg/mL. Besides, the “mean EC50, QoI-resistant (n = 14)” value in assay [2] turned out to be 0.021 µg/mL. The “fold more active against QoI-resistant than QoI-sensitive isolates” value in assay [2] (ratio of mean EC50 values, sensitive vs resistant) is 1.7 fold. Also, in assay [4], the “activity against the LARS 15 strain (in words)” value is on record as “highly active” and the “LARS 15 EC50” value amounted to 0.169 ppm. For the same molecule, in assay [5], the “activity against the QoI-resistant strain R2004-6 (in words)” value is reported as “highly active” and the “R2004-6 EC50” value is 0.122 ppm.

Regarding `CCC1(C)CC(NC(=O)c2cccc(NC=O)c2O)CC(C)(C)C1` (stereo not shown) [Compound 2], in assay [3], the “R2004-6 EC50” value is given as less than 0.0005 ppm. For the same molecule, in assay [4], the “LARS 15 EC50” value was found to be 0.0006 ppm.

Regarding `COc1ccnc(C(=O)NC2CCCC(Sc3ccc(C(C)(C)C)cc3)C2)c1O` (stereo not shown) [Compound 3], the “R2004-6 EC50” value in assay [3] is recorded as 0.059 ppm. Moreover, the “LARS 15 EC50” value in assay [4] stood at 0.049 ppm.

Turning to `CO/N=C(/C(=O)OC)c1ccccc1COc1ccccc1C` [Kresoxim-methyl, kresoxim-methyl], the “R2004-6 EC50” value in assay [3] is recorded as greater than 5 ppm. In addition, the “LARS 15 EC50” value in assay [4] is on record as less than 0.005 ppm.

As for UK2A [UK-2A], in assay [4], the “activity against the LARS 15 strain (in words)” value was “highly active” and the “LARS 15 EC50” value was 0.037 ppm. In assay [5], the “activity against the QoI-resistant strain R2004-6 (in words)” value is “highly active” and the “R2004-6 EC50” value worked out at 0.029 ppm.

antimycin A: the “LARS 15 EC50” value in assay [4] came to 0.021 ppm. Also, the “R2004-6 EC50” value in assay [5] is listed as 0.011 ppm.
